Reference: US12692461B2, “Composite form of tetraacetylenediamine” (ONE1STAR SOLUTIONS LIMITED, priority 2020, dated 2026)
Converted amounts (≈) assume the structure as drawn. Read-outs that look alike come from different tables or passages of the source.

Tests used:
[1] = Example 4: performance and water miscibility in presence of sodium percarbonate, undissolved TAED at T=0 and T=6 months; assay type: physicochemical
Protocol: The TAED:Sodium percarbonate ratio used for the study was 1:2.5 w/w. […] This 100 mL solution was either used as it was or it was further diluted to with 900 mL water to make a 1 L sample.

[2] = cited from earlier work
[3] = Example 3: performance and water miscibility in presence of sodium percarbonate, weight of remaining material
Protocol: The experiment was carried out to check the performance and water miscibility of TAED in presence of sodium percarbonate. 1 gram of TAED with 2.5 gram of sodium percarbonate was added 1 litre water and stirred at 500 rpm using overhead stirrer. In Experiment set up the amount of water used for the study was 1 litre.

## CC(=O)N(CCN(C(C)=O)C(C)=O)C(C)=O [TAED (Commercially available), Tetraacetylethylenediamine]
[1]; 1 g TAED, 1 L, 1 min, T = 6 months (40° C., 75% relative humidity)
  Undissolved TAED: 90 mg
[1]; 1 g TAED, 1 L, 4 min, T = 0
  Undissolved TAED: 60 mg
[1]; 1 g TAED, 1 L, 4 min, T = 6 months (40° C., 75% relative humidity)
  Undissolved TAED: 60 mg
[1]; 1 g TAED, 100 mL diluted to 1 L, 1 min, T = 0
  Undissolved TAED: 90 mg
[1]; 1 g TAED, 100 mL water, stirring 1 min, T = 6 months (40° C., 75% relative humidity)
  Undissolved TAED: 150 mg
[1]; 1 g TAED, 100 mL water, stirring 4 min, T = 0
  Undissolved TAED: 100 mg
[1]; 1 g TAED, 100 mL water, stirring 4 min, T = 6 months (40° C., 75% relative humidity)
  Undissolved TAED: 100 mg
[1]; 1 g TAED, sodium percarbonate 1:2.5 w/w, 100 mL water, stirring 1 min, T = 0
  Undissolved TAED: 150 mg
[1]; 3 gram TAED, 1 litre, stirring 1 min, T = 0
  Undissolved TAED: 1.8 gram
[1]; 3 gram TAED, 1 litre, stirring 1 min, T = 6 month
  Undissolved TAED: 1.8 gram
[1]; 3 gram TAED, 1 litre, stirring 4 min, T = 0
  Undissolved TAED: 1.2 gram
[1]; 3 gram TAED, 1 litre, stirring 4 min, T = 6 month
  Undissolved TAED: 1.2 gram
[1]; 3 gram TAED, 100 ml water, stirring 1 min, T = 0
  Undissolved TAED: 2 gram
[1]; 3 gram TAED, 100 ml water, stirring 1 min, T = 6 month
  Undissolved TAED: 2 gram
[1]; 3 gram TAED, 100 ml water, stirring 4 min, T = 0
  Undissolved TAED: 1.8 gram
[1]; 3 gram TAED, 100 ml water, stirring 4 min, T = 6 month
  Undissolved TAED: 1.8 gram
[2]; 20° C.
  solubility: 0.2 g/L (≈ 876 µM)
[2]
  solubility: around 200 mg/L
[3]; 100 ml water
  amount remained after 5 min: 800 mg
[3]; 250 ml water
  amount remained after 5 min: 750 mg
[3]; 500 ml water
  amount remained after 5 min: 690 mg
